Surviving fraction data for seven test systems are collected here from the supplement of paper PMC6045584.

± gives the standard deviation of the averaged measurements.

Compound in one experiment: COc1cc2c(cc1O)CC[C@@H]1[C@@H]2CC[C@]2(C)[C@@H](O)CC[C@@H]12 [2-METHOXYESTRADIOL]
The experiment is described as follows: surviving fraction relative to DMSO-only wells; higher = less growth inhibition. To be noted: exposure time: 5 days. The gist of the method:
(§1)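 Viability was scored with CellTiter-Glo luminescence and normalised to the median of DMSO-only wells as surviving fraction. Beforehand, log-phase tumour cell lines were seeded at 250–500 cells per well in 384-well plates, allowed 24 hours, and exposed continuously for five days to inhibitors at 0.5, 1, 5, 10, 50, 100, 500 and 1000 nM. Only lines whose three screens gave replicate Pearson r >0.7 and median Z' >0.3 were kept.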

Compound in a further experiment: CC[C@@H](C(=O)[C@@H](C)[C@@H](O)[C@H](C)[C@@H]1O[C@@H]([C@@H](CC)C(=O)O)CC[C@@H]1C)[C@H]1O[C@]2(C=C[C@@H](O)[C@]3(CC[C@@](C)([C@H]4CC[C@](O)(CC)[C@H](C)O4)O3)O2)[C@H](C)C[C@@H]1C [SALINOMYCIN]
The experiment is described as above. The following applies: exposure time: 5 days. The gist of the method: as §1

As for G292 BONE, the surviving fraction is 0.988 ± 0.035 with 2-METHOXYESTRADIOL (0.5 nM); 0.956 ± 0.026 in the experiment with 2-METHOXYESTRADIOL (1 nM); 1.04 ± 0.035 with 2-METHOXYESTRADIOL (5 nM); 0.994 ± 0.049 with 2-METHOXYESTRADIOL (10 nM); 0.982 ± 0.061 in the experiment with 2-METHOXYESTRADIOL (50 nM); 0.919 ± 0.029 with 2-METHOXYESTRADIOL (100 nM). Further, the surviving fraction with 2-METHOXYESTRADIOL (500 nM) amounted to 0.39 ± 0.013; in the experiment with 2-METHOXYESTRADIOL (1000 nM) it was 0.234 ± 0.017; in the experiment with SALINOMYCIN (0.5 nM), 0.971 ± 0.016; with SALINOMYCIN (1 nM), 0.967 ± 0.055; with SALINOMYCIN (5 nM), 1 ± 0.086; with SALINOMYCIN (10 nM), 0.966 ± 0.046. Moreover, the surviving fraction came to 0.932 ± 0.017 with SALINOMYCIN (50 nM), 0.828 ± 0.013 with SALINOMYCIN (100 nM), 0.204 ± 0.011 in the experiment with SALINOMYCIN (500 nM) and 0.146 ± 0.0081 with SALINOMYCIN (1000 nM).

HCC38 BREAST: the surviving fraction with 2-METHOXYESTRADIOL (0.5 nM) was 1.28 ± 0.069; with 2-METHOXYESTRADIOL (1 nM), 1.28 ± 0.15; in the experiment with 2-METHOXYESTRADIOL (5 nM), 1.12 ± 0.26; with 2-METHOXYESTRADIOL (10 nM), 1.21 ± 0.18; with 2-METHOXYESTRADIOL (50 nM) it was 1.35 ± 0.15; in the experiment with 2-METHOXYESTRADIOL (100 nM), 1.02 ± 0.36. The surviving fraction in the experiment with 2-METHOXYESTRADIOL (500 nM) is 0.76 ± 0.074; with 2-METHOXYESTRADIOL (1000 nM) it was 0.349 ± 0.028; in the experiment with SALINOMYCIN (0.5 nM) it was 1.26 ± 0.26; with SALINOMYCIN (1 nM), 1.14 ± 0.15; with SALINOMYCIN (5 nM), 1.3 ± 0.19; with SALINOMYCIN (10 nM), 1.26 ± 0.081. For the same test system, the surviving fraction with SALINOMYCIN (50 nM) stood at 1.05 ± 0.14; with SALINOMYCIN (100 nM), 0.862 ± 0.2; in the experiment with SALINOMYCIN (500 nM), 0.415 ± 0.03; with SALINOMYCIN (1000 nM), 0.317 ± 0.052.

For the test system HCC70 BREAST, the surviving fraction in the experiment with 2-METHOXYESTRADIOL (0.5 nM) is 0.978 ± 0.05; with 2-METHOXYESTRADIOL (1 nM), 1.06 ± 0.064; in the experiment with 2-METHOXYESTRADIOL (5 nM), 1.03 ± 0.062; in the experiment with 2-METHOXYESTRADIOL (10 nM) it was 1.07 ± 0.016; in the experiment with 2-METHOXYESTRADIOL (50 nM) it was 1.03 ± 0.14; in the experiment with 2-METHOXYESTRADIOL (100 nM), 1.01 ± 0.1. For the same test system, the surviving fraction with 2-METHOXYESTRADIOL (500 nM) is 0.629 ± 0.044; with 2-METHOXYESTRADIOL (1000 nM) it was 0.212 ± 0.043; in the experiment with SALINOMYCIN (0.5 nM) it was 0.915 ± 0.055; in the experiment with SALINOMYCIN (1 nM), 1.011 ± 0.0081; with SALINOMYCIN (5 nM), 1.02 ± 0.035; with SALINOMYCIN (10 nM), 0.973 ± 0.022. In addition, the surviving fraction with SALINOMYCIN (50 nM) was determined as 0.948 ± 0.11; in the experiment with SALINOMYCIN (100 nM), 0.671 ± 0.061; with SALINOMYCIN (500 nM), 0.251 ± 0.011; with SALINOMYCIN (1000 nM), 0.147 ± 0.015.

With HMLE3 BREAST, the surviving fraction with 2-METHOXYESTRADIOL (0.5 nM) was determined as 0.913 ± 0.033; with 2-METHOXYESTRADIOL (1 nM), 0.964 ± 0.037; with 2-METHOXYESTRADIOL (5 nM), 0.991 ± 0.059; with 2-METHOXYESTRADIOL (10 nM), 1.05 ± 0.031; with 2-METHOXYESTRADIOL (50 nM), 0.987 ± 0.068; in the experiment with 2-METHOXYESTRADIOL (100 nM) it was 0.887 ± 0.059. The surviving fraction with 2-METHOXYESTRADIOL (500 nM) was 0.937 ± 0.064; in the experiment with 2-METHOXYESTRADIOL (1000 nM) it was 0.602 ± 0.035; with SALINOMYCIN (0.5 nM) it was 0.898 ± 0.036; in the experiment with SALINOMYCIN (1 nM), 0.894 ± 0.1; with SALINOMYCIN (5 nM), 1.02 ± 0.028; in the experiment with SALINOMYCIN (10 nM) it was 0.926 ± 0.09. Moreover, the surviving fraction in the experiment with SALINOMYCIN (50 nM) was 1.19 ± 0.032; with SALINOMYCIN (100 nM), 0.988 ± 0.028; with SALINOMYCIN (500 nM), 0.056 ± 0.0095; with SALINOMYCIN (1000 nM), 0.0347 ± 0.0042.

As to HMT3552 BREAST, the surviving fraction in the experiment with 2-METHOXYESTRADIOL (0.5 nM) was 1.06 ± 0.034; with 2-METHOXYESTRADIOL (1 nM), 1.04 ± 0.09; with 2-METHOXYESTRADIOL (5 nM), 1.08 ± 0.013; in the experiment with 2-METHOXYESTRADIOL (10 nM) it was 0.993 ± 0.015; in the experiment with 2-METHOXYESTRADIOL (50 nM), 1.11 ± 0.029; with 2-METHOXYESTRADIOL (100 nM) it was 1.17 ± 0.066. Moreover, the surviving fraction with 2-METHOXYESTRADIOL (500 nM) came out at 0.343 ± 0.025; in the experiment with 2-METHOXYESTRADIOL (1000 nM), 0.126 ± 0.008; with SALINOMYCIN (0.5 nM), 1.07; with SALINOMYCIN (1 nM), 1; with SALINOMYCIN (5 nM), 1.07; in the experiment with SALINOMYCIN (10 nM), 1.11. In addition, the surviving fraction came out at 1.13 in the experiment with SALINOMYCIN (50 nM), 1.05 with SALINOMYCIN (100 nM), 0.801 with SALINOMYCIN (500 nM) and 0.728 in the experiment with SALINOMYCIN (1000 nM).

With HS57T BREAST, the surviving fraction with 2-METHOXYESTRADIOL (0.5 nM) stood at 0.919 ± 0.034; in the experiment with 2-METHOXYESTRADIOL (1 nM) it was 0.879 ± 0.078; with 2-METHOXYESTRADIOL (5 nM), 0.95 ± 0.074; with 2-METHOXYESTRADIOL (10 nM), 0.965 ± 0.041; in the experiment with 2-METHOXYESTRADIOL (50 nM), 0.936 ± 0.044; in the experiment with 2-METHOXYESTRADIOL (100 nM), 0.901 ± 0.054. For the same test system, the surviving fraction stood at 0.326 ± 0.017 with 2-METHOXYESTRADIOL (500 nM); 0.0817 ± 0.0051 in the experiment with 2-METHOXYESTRADIOL (1000 nM); 0.986 ± 0.077 with SALINOMYCIN (0.5 nM); 0.949 ± 0.062 with SALINOMYCIN (1 nM); 1.07 ± 0.057 in the experiment with SALINOMYCIN (5 nM); 1.03 ± 0.042 with SALINOMYCIN (10 nM). For the same test system, the surviving fraction in the experiment with SALINOMYCIN (50 nM) turned out to be 1.03 ± 0.013; with SALINOMYCIN (100 nM) it was 0.813 ± 0.036; with SALINOMYCIN (500 nM), 0.28 ± 0.02; with SALINOMYCIN (1000 nM), 0.158 ± 0.011.

Consider HS578T BREAST, for which the surviving fraction stood at 0.859 ± 0.075 in the experiment with 2-METHOXYESTRADIOL (0.5 nM); 0.947 ± 0.024 in the experiment with 2-METHOXYESTRADIOL (1 nM); 0.946 ± 0.13 with 2-METHOXYESTRADIOL (5 nM); 0.917 ± 0.046 in the experiment with 2-METHOXYESTRADIOL (10 nM); 1.05 ± 0.23 in the experiment with 2-METHOXYESTRADIOL (50 nM); 1.16 ± 0.096 with 2-METHOXYESTRADIOL (100 nM). Also, the surviving fraction was determined as 0.499 ± 0.08 with 2-METHOXYESTRADIOL (500 nM); 0.188 ± 0.0064 in the experiment with 2-METHOXYESTRADIOL (1000 nM); 0.874 ± 0.12 with SALINOMYCIN (0.5 nM); 0.894 ± 0.036 with SALINOMYCIN (1 nM); 0.993 ± 0.16 with SALINOMYCIN (5 nM); 1.01 ± 0.11 with SALINOMYCIN (10 nM). In addition, the surviving fraction stood at 1.05 ± 0.076 with SALINOMYCIN (50 nM), 0.826 ± 0.096 in the experiment with SALINOMYCIN (100 nM), 0.589 ± 0.033 with SALINOMYCIN (500 nM) and 0.526 ± 0.041 with SALINOMYCIN (1000 nM).
